Legend:
KRAS-G12C/SOS1 = target: T1, KRAS-G12C/SOS1 (Homo sapiens, UniProt Q07889); assay: KRAS-G12C/SOS1 binding assay (HTRF); details: inhibition of KRAS-G12C/SOS1 binding
T1 construct: purchased Cisbio 63ADKOOOCB16PEG
T1 sequence (Q07889 1-1333): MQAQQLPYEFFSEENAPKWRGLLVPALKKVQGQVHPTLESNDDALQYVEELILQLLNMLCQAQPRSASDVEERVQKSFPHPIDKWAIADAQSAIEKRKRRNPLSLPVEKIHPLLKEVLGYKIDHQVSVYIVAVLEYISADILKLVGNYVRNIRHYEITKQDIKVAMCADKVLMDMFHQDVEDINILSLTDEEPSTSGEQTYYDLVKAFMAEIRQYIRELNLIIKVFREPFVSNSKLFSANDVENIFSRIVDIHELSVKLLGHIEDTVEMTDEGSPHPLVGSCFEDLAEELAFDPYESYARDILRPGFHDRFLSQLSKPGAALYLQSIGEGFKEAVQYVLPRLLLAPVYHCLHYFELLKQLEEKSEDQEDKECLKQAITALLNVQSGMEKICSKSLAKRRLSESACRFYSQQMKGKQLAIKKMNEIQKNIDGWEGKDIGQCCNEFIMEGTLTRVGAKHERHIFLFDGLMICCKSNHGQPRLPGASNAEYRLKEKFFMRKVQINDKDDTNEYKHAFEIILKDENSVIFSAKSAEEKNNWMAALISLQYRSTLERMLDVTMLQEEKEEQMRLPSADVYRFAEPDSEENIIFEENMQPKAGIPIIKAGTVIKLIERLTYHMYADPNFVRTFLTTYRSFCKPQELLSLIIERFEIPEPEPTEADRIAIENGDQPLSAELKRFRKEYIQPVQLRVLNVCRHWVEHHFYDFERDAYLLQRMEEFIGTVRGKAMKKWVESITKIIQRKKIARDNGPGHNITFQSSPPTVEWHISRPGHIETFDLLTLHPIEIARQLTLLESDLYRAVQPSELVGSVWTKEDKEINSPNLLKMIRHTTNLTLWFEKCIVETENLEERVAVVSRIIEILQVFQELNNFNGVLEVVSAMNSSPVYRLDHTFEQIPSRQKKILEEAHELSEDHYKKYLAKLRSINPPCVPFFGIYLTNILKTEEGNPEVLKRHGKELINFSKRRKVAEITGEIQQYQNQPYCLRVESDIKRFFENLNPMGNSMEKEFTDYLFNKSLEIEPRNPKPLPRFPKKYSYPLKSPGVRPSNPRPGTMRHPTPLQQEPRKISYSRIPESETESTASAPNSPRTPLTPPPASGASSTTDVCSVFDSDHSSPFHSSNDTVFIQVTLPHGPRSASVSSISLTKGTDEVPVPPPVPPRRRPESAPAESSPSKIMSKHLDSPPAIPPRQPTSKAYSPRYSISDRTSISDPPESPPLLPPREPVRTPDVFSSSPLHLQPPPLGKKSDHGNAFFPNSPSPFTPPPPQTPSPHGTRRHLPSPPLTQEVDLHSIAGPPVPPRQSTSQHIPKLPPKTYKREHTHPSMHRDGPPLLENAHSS
Description: The following method was used to determine the extent of inhibition of KRAS-G12C/SOS1 binding by the preferred compounds of the present invention under in vitro conditions. In this method, the competitive inhibition of KRAS-G12C/SOS1 binding by the preferred compounds was assayed by the homogeneous time-resolved fluorescence (HTRF) technology using the KRAS-G12C/SOS1 binding assay kit (Cisbio, 63ADKOOOCB16PEG).
The experimental procedures were as follows (refer to the kit instructions for details): the compounds of the present invention were each firstly dissolved in DMSO at a concentration of 20 mM, and then diluted in an equal gradient with a buffer in the kit, so that the final concentrations of the test compounds in the reaction system were in a range of 10000 nM-0.04 nM, and the final concentration of DMSO was 0.5%. 2 μL of the compounds were each incubated with 4 μL of 1×Tag1-SOS1, 4 μL of 1×Tag2-KRAS-G12C (containing 10 μM guanosine triphosphate, GTP) at 25° C. for 15 min. Then 5 μL of 1× Anti-Tag1-Tb3+ and 5 μL of 1× Anti-Tag2-XL665 were added to the reaction system, and the mixture was incubated on ice for 3 h. After the incubation, the fluorescence intensity of each well was measured at the excitation wavelength of 337 nm, the fluorescence intensity of each well was read at the emission wavelengths of 620 nm and 665 nm on a microplate reader EnVision (PerkinElmer, 2105) in an HTRF mode, and the Ratio value was calculated by the formula Ratio=(665 nm/620 nm)×[…]. The inhibition rates of the compounds at each concentration were calculated by comparing the fluorescence intensity ratio with that of the control group, and then nonlinear curve fitting was performed by GraphPad Prism 8 in the logarithmic concentration-inhibition rate to obtain the IC50 values of the compounds, as shown in Table 1.

SOS1 protein = target: T2, SOS1 protein (Homo sapiens, UniProt Q07889); assay: SOS1 degradation assay (Western blot), NCI-H358 cells; format: cell-based; parameters: The degradation of SOS1 by the compounds was investigated on KRAS G12C mutant human non-small cell lung cancer cells NCI-H358; host or cells: NCI-H358 (human cancer cell lines); details: SOS1 degradation, NCI-H358 cells, 24 h, Western blot; for DC50: read-out: NCI-H358 (G12C) DC50; for Dmax: read-out: NCI-H358 (G12C) Dmax
T2 sequence (Q07889 1-1333): T1 sequence (Q07889 1-1333)
In short: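 Cells at 5×10^5 per well were treated for 24 h at 37 °C with compound at 0.03–3000 nM final. SOS1 in lysates was measured by Western blot with chemiluminescent densitometry and normalised to the control group. DC50 and Dmax came from nonlinear fits against log concentration.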

| SMILES | IC50 (KRAS-G12C/SOS1) [nM] | DC50 (SOS1 protein) [nM] | Dmax (SOS1 protein) [%] |
| --- | --- | --- | --- |
| COc1cc2nc(C)nc(N[C@H](C)c3cc(-c4c(Cl)cccc4CN(C)C)cs3)c2cc1[C@H]1CC[C@H](C(=O)N2CCN(CCOCC3CCN(C(=O)c4ccc(Cl)c(N5CCC(=O)NC5=O)c4)CC3)CC2)CC1 [Example 67, 1-(2-chloro-5-(4-((2-(4-((1R,4R)-4-(4-(((R)-1-(4-(2-chloro-6-((dimethylamino)methyl)phenyl)thien-2-yl)ethyl)amino)-7-methoxy-2-methylquinazolin-6-yl)cyclohexane-1-carbonyl)piperazin-1-yl)ethoxy)methyl)piperidine-1-carbonyl)phenyl)dihydropyrimidine-2,4(1H,3H)-dione] | ≤ 15 | < 50 | 80 to 100 |
| COc1cc2nc(C)nc(N[C@H](C)c3cc(N)cc(C(F)(F)F)c3)c2cc1[C@H]1CC[C@H](C(=O)N2CCC(CCOCC3CCN(C(=O)c4ccc(F)c(N5CCC(=O)NC5=O)c4)CC3)CC2)CC1 [Example 44, 1-(5-(4-((2-(1-((1R,4R)-4-(4-(((R)-1-(3-amino-5-(trifluoromethyl)phenyl)ethyl)amino)-7-methoxy-2-methylquinazolin-6-yl)cyclohexane-1-carbonyl)piperidin-4-yl)ethoxy)methyl)piperidine-1-carbonyl)-2-fluorophenyl)dihydropyrimidine-2,4(1H,3H)-dione] | ≤ 15 | < 50 | – |
| [2H]C([2H])(OCC1CCN(C(=O)[C@H]2CC[C@H](c3cc4c(N[C@H](C)c5cc(N)cc(C(F)(F)F)c5)nc(C)nc4cc3OC)CC2)CC1)C1CCN(C(=O)c2ccc(Cl)c(N3CCC(=O)NC3=O)c2)CC1 [Example 75, 1-(5-(4-(((1-((1R,4R)-4-(4-(((R)-1-(3-amino-5-(trifluoromethyl)phenyl)ethyl)amino)-7-methoxy-2-methylquinazolin-6-yl)cyclohexane-1-carbonyl)piperidin-4-yl)methoxy)methyl-d2)piperidine-1-carbonyl)-2-chlorophenyl)dihydropyrimidine-2,4(1H,3H)-dione] | ≤ 15 | < 50 | 50 to 80 |
| COc1cc2nc(C)nc(N[C@H](C)c3cc(-c4c(Cl)cccc4CN(C)C)cs3)c2cc1[C@H]1CC[C@H](C(=O)N2CCC(OCCCC3CCN(C(=O)c4ccc(Cl)c(N5CCC(=O)NC5=O)c4)CC3)CC2)CC1 [Example 61, 1-(2-chloro-5-(4-(3-((1-((1R,4R)-4-(4-(((R)-1-(4-(2-chloro-6-((dimethylamino)methyl)phenyl)thien-2-yl)ethyl)amino)-7-methoxy-2-methylquinazolin-6-yl)cyclohexane-1-carbonyl)piperidin-4-yl)oxy)propyl)piperidine-1-carbonyl)phenyl)dihydropyrimidine-2,4(1H,3H)-dione] | ≤ 15 | 100 to 500 | 50 to 80 |
| COc1cc2nc(C)nc(N[C@H](C)c3cccc4c3CCS4(=O)=O)c2cc1[C@H]1CC[C@H](C(=O)N2CCC(CCOCC3CCN(C(=O)c4ccc(Cl)c(N5CCC(=O)NC5=O)c4)CC3)CC2)CC1 [Example 55, 1-(2-chloro-5-(4-((2-(1-((1R,4R)-4-(4-(((R)-1-(1,1-dioxido-2,3-dihydrobenzo[b]thiophen-4-yl)ethyl)amino)-7-methoxy-2-methylquinazolin-6-yl)cyclohexane-1-carbonyl)piperidin-4-yl)ethoxy)methyl)piperidine-1-carbonyl)phenyl)dihydropyrimidine-2,4(1H,3H)-dione] | ≤ 15 | – | – |
| COc1cc2nc(C)nc(N[C@H](C)c3cc(-c4c(Cl)cccc4CN(C)C)cs3)c2cc1[C@H]1CC[C@H](C(=O)N2CCC(CCOCC3CCN(C(=O)c4ccc(C(F)(F)F)c(N5CCC(=O)NC5=O)c4)CC3)CC2)CC1 [Example 57, 1-(5-(4-((2-(1-((1R,4R)-4-(4-(((R)-1-(4-(2-chloro-6-((dimethylamino)methyl)phenyl)thien-2-yl)ethyl)amino)-7-methoxy-2-methylquinazolin-6-yl)cyclohexane-1-carbonyl)piperidin-4-yl)ethoxy)methyl)piperidine-1-carbonyl)-2-(trifluoromethyl)phenyl)dihydropyrimidine-2,4(1H,3H)-dione] | ≤ 15 | < 50 | – |
| COc1cc2nc(C)nc(N[C@H](C)c3cc(-c4c(Cl)cccc4CN(C)C)cs3)c2cc1[C@H]1CC[C@H](C(=O)N2CCN(CCC3CCC4(CC3)CCN(C(=O)c3ccc(Cl)c(N5CCC(=O)NC5=O)c3)CC4)CC2)CC1 [Example 62, 1-(2-chloro-5-(9-(2-(4-((1R,4R)-4-(4-(((R)-1-(4-(2-chloro-6-((dimethylamino)methyl)phenyl)thien-2-yl)ethyl)amino)-7-methoxy-2-methylquinazolin-6-yl)cyclohexane-1-carbonyl)piperazin-1-yl)ethyl)-3-azaspiro[5.5]undecane-3-carbonyl)phenyl)dihydropyrimidine-2,4(1H,3H)-dione] | ≤ 15 | < 50 | 80 to 100 |
| COc1cc2nc(C)nc(N[C@H](C)c3cc(-c4c(Cl)cccc4CN(C)C)cs3)c2cc1[C@H]1CC[C@H](C(=O)N2CCC(CCOCC3CCN(C(=O)c4ccc(OC(F)(F)F)c(N5CCC(=O)NC5=O)c4)CC3)CC2)CC1 [Example 58, 1-(5-(4-((2-(1-((1R,4R)-4-(4-(((R)-1-(4-(2-chloro-6-((dimethylamino)methyl)phenyl)thien-2-yl)ethyl)amino)-7-methoxy-2-methylquinazolin-6-yl)cyclohexane-1-carbonyl)piperidin-4-yl)ethoxy)methyl)piperidine-1-carbonyl)-2-(trifluoromethoxy)phenyl)dihydropyrimidine-2,4(1H,3H)-dione] | ≤ 15 | – | – |
| COc1cc2nc(C)nc(N[C@H](C)c3cccc4c3CCS4(=O)=O)c2cc1[C@H]1CC[C@H](C(=O)N2CCC(CCOCC3CCN(C(=O)c4ccc(C(F)(F)F)c(N5CCC(=O)NC5=O)c4)CC3)CC2)CC1 [Example 66, 1-(5-(4-((2-(1-((1R,4R)-4-(4-(((R)-1-(1,1-dioxido-2,3-dihydrobenzo[b]thiophen-4-yl)ethyl)amino)-7-methoxy-2-methylquinazolin-6-yl)cyclohexane-1-carbonyl)piperidin-4-yl)ethoxy)methyl)piperidine-1-carbonyl)-2-(trifluoromethyl)phenyl)dihydropyrimidine-2,4(1H,3H)-dione] | ≤ 15 | – | – |

Source: US20240261417A1, “SOS1 DEGRADING AGENT AND PREPARATION METHOD THEREFOR AND APPLICATION THEREOF” (SHANGHAI LEADINGTAC PHARMACEUTICAL CO. LTD., priority 2021, published 2024)
